Experimental data published in patent US20240109917A1 (ACTELION PHARMACEUTICALS LTD, priority 2020, published 2024).
pIC50: −log10 of the molar value.

target: His6-TEV-PDGFRβ (557-1016) (Homo sapiens (Human), UniProt P09619); test: PDGFRβ HTRF Assay; assay type: biochemical; settings: read-out: PDGFR HTRF IC50
Summary of the method: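 Human PDGFRβ (557-1016) pre-incubated with compound for 30 min at RT in pH 7.5 HEPES/MgCl2/EGTA/Brij-35/DTT buffer. Reaction started with ATP and TK-biotin peptide, run 3 h at RT, then quenched with EDTA-containing Eu-cryptate antibody/streptavidin-XL665. HTRF 665/620 nm ratio read after 60 min; percent inhibition relative to DMSO and 10 μM imatinib controls.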

Chain of His6-TEV-PDGFRβ (557-1016) (P09619 557-1016): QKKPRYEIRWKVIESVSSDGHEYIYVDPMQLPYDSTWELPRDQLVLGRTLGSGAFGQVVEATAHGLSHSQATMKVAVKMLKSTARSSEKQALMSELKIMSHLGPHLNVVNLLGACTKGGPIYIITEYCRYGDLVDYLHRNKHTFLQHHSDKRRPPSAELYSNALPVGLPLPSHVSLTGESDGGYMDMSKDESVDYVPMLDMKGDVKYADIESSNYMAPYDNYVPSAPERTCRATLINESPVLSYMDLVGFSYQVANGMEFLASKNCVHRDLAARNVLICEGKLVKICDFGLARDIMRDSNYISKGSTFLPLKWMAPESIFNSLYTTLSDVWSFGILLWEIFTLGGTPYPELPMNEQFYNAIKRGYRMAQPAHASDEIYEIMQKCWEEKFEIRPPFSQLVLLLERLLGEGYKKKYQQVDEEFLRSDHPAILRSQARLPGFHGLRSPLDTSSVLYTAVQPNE

| Structure (SMILES) | pIC50 |
| --- | --- |
| COC/C=C/c1cn2ncc(C(=O)Nc3cc(NC(=O)CN4C[C@H](C)O[C@@H](C)C4)cnc3C)c2s1 (relative stereo) [Example 367, N-(5-(2-(trans-2,6-dimethylmorpholino)acetamido)-2-methylpyridin-3-yl)-2-((E)-3-methoxyprop-1-en-1-yl)pyrazolo[5,1-b]thiazole-7-carboxamide] | 8.74 |
| COc1ncccc1-c1cn2ncc(C(=O)Nc3cc(NC(=O)CN4C[C@H](C)O[C@@H](C)C4)cnc3C)c2s1 (relative stereo) [Example 368, N-(5-(2-(trans-2,6-dimethylmorpholino)acetamido)-2-methylpyridin-3-yl)-2-(2-methoxypyridin-3-yl)pyrazolo[5,1-b]thiazole-7-carboxamide] | 9.52 |
| Cc1ncc(NC(=O)CN2C[C@H](C)O[C@@H](C)C2)cc1NC(=O)c1cnn2cc(-c3c[nH]nc3C)sc12 (relative stereo) [Example 371, N-(5-(2-(trans-2,6-dimethylmorpholino)acetamido)-2-methylpyridin-3-yl)-2-(3-methyl-1H-pyrazol-4-yl)pyrazolo[5,1-b]thiazole-7-carboxamide] | 9.40 |
| Cc1ncc(NC(=O)CN2C[C@H](C)O[C@@H](C)C2)cc1NC(=O)c1cnn2cc(-c3cnc(N)c(F)c3)sc12 (relative stereo) [Example 372, 2-(6-amino-5-fluoropyridin-3-yl)-N-(5-(2-(trans-2,6-dimethylmorpholino)acetamido)-2-methylpyridin-3-yl)pyrazolo[5,1-b]thiazole-7-carboxamide] | 9.22 |
| Cc1ncc(NC(=O)CN2C[C@H](C)O[C@@H](C)C2)cc1NC(=O)c1cnn2cc(-c3c(C)n[nH]c3C)sc12 (relative stereo) [Example 373, 2-(3,5-dimethyl-1H-pyrazol-4-yl)-N-(5-(2-(trans-2,6-dimethylmorpholino)acetamido)-2-methylpyridin-3-yl)pyrazolo[5,1-b]thiazole-7-carboxamide] | 8.89 |
| Cc1ncc(NC(=O)CN2C[C@H](C)O[C@@H](C)C2)cc1NC(=O)c1cnn2cc(-c3cc[nH]n3)sc12 (relative stereo) [Example 374, N-(5-(2-(trans-2,6-dimethylmorpholino)acetamido)-2-methylpyridin-3-yl)-2-(1H-pyrazol-3-yl)pyrazolo[5,1-b]thiazole-7-carboxamide] | 9.40 |
| Cc1ncc(NC(=O)CN2C[C@H](C)O[C@@H](C)C2)cc1NC(=O)c1cnn2cc(-c3cnn4c3OCCC4)sc12 (relative stereo) [Example 375, 2-(6,7-dihydro-5H-pyrazolo[5,1-b][1,3]oxazin-3-yl)-N-(5-(2-(trans-2,6-dimethylmorpholino)acetamido)-2-methylpyridin-3-yl)pyrazolo[5,1-b]thiazole-7-carboxamide] | 9.22 |
| Cc1ncc(NC(=O)CN2C[C@@H](CO)O[C@@H](C)C2)cc1NC(=O)c1cnn2cc(-c3cnn(C)c3)sc12 (relative stereo) [Example 378, N-(5-(2-(cis-2-(hydroxymethyl)-6-methylmorpholino)acetamido)-2-methylpyridin-3-yl)-2-(1-methyl-1H-pyrazol-4-yl)pyrazolo[5,1-b]thiazole-7-carboxamide] | 9.10 |
| Cc1ncc(NC(=O)CN2C[C@H](C)O[C@@H](C)C2)cc1NC(=O)c1cnn2cc(-c3cnn(C4CC4)c3)sc12 (relative stereo) [Example 382, 2-(1-cyclopropyl-1H-pyrazol-4-yl)-N-(5-(2-(trans-2,6-dimethylmorpholino)acetamido)-2-methylpyridin-3-yl)pyrazolo[5,1-b]thiazole-7-carboxamide] | 9.22 |
| COc1ncccc1-c1cn2ncc(C(=O)Nc3cc(NC(=O)CN4C[C@H](C)O[C@@H](C)C4)cnc3C)c2s1 (relative stereo) [Example 384, N-(5-(2-(trans-2,6-dimethylmorpholino)acetamido)-2-methylpyridin-3-yl)-2-(2-methoxypyridin-3-yl)pyrazolo[5,1-b]thiazole-7-carboxamide] | 9.40 |
